“And” between values parts separate entries of the source, which are not always exact repeats. Equal values may be shown once.
Test system: NCI-H929 complex spheroids, viability % test/control
Experiment: Anticancer human tumor NCI-H929 cell line growth inhibition [RAS];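 further: compound exposure lasted seven days before viability was read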
Settings: for viability, T/C: stronger effect = lower value; active means viability on the fitted dose curve at most 10% of control; inactive means the rest
From the text: RAS pathway inhibitors in Combinations in Complex Spheroids
A high-throughput screen of multi-cell type tumor spheroids was designed to identify active combinations of RAS pathway inhibitors and targeted small molecules. Complex spheroids include a stromal component modeled by human endothelial cells (HUVEC) and fibroblasts modeled by human mesenchymal stem cells (MSCs). The concentration ranges selected for each drug and investigational agent were based upon clinically achievable concentrations if the clinical Cmax of the agent was known.
Compounds. The drugs and investigational agents: abemaciclib (NSC768073), cobimetinib (NSC768068), divarasib (GDC6063, NSC841802), docetaxel (NSC628503), GDC-1971 (RLY-1971, NSC841576), gemcitabine (NSC613327), inavolisib (NSC800729), ipatasertib (NSC767898), KB-0742 (NSC834161), MRTX-1133 (NSC836407), osimertinib (NSC779217), RMC-4630 (NSC839698), RMC-6236 (NSC851965), RMC-6291 (NSC852671), Ro-3306 (NSC812927), sapanisertib (NSC764658), SN-38 (NSC673596), staurosporine (NSC755774), SY5609 (NSC837396), and tovorafenib (DAY101, NSC766906), were obtained from the National Cancer Institute (NCI) Developmental Therapeutics Program Chemical Repository. The FDA-approved anticancer drug set is available from the NCI Developmental Therapeutics Program. […] The stock solutions were prepared in dimethyl sulfoxide (DMSO, Sigma-Aldrich, St. Louis, MO, cat. D2650) at 800-fold the tested concentration and stored at -70 degrees C prior to their use. All drugs and investigational agents were tested over a range starting from a high concentration at or near the clinical Cmax and decreasing in half-log increments. If the clinical Cmax for an agent had not been determined, the highest concentration tested was 10 microM.
Cell Culture. All cells were maintained in an incubator at 37 degrees C and 5% CO2 with 95% humidity. The PDC lines were cultured according to standard operating procedures established by the NCI PDMR. All PDCs were thawed and cultured in Matrigel-coated flasks prepared with a working solution of 1X Ham's F-12 nutrient mix, without supplementation (Invitrogen, Waltham, MA, cat. 11765054), 100 U/mL penicillin-streptomycin (Invitrogen, cat. 15140122), and 2.5% Matrigel (Corning Inc., Corning, NY, cat. 354248) for the first three passages. The 362531-283-R-J2-PDC and 782815-120-R-J1-PDC lines were cultured in 6C/Colon 1B media, which includes advanced DMEM/F-12 (Thermo Fisher Scientific, cat. 12634028), 10 mM HEPES (Thermo Fisher Scientific, cat. 15630080), 1X GlutaMAX supplement (Thermo Fisher Scientific, cat. 35050061), 0.1 mg/mL primocin (InvivoGen, San Diego, CA, cat. ant-pm-2), 10% defined fetal bovine serum, heat inactivated (HyClone Laboratories Inc., Logan, UT, cat. SH30070.03HI), 50% L-WRN conditioned media (ATCC, cat. CRL-3276), 1.25 mM N-Acetyl-L-cysteine (Sigma-Aldrich, cat. A9165), 10 mM nicotinamide (Sigma-Aldrich, cat. N0636), 1X B-27 supplement (Thermo Fisher Scientific, cat. 17504044), 1X N-2 supplement (Thermo Fisher Scientific, cat. 17502048), 50 ng/mL human EGF (Thermo Fisher Scientific, cat. PHG0311), and 10 microM Y-27632 dihydrochloride (Tocris Bioscience, cat. 1254). The K12877-001-R-J1-PDC line was cultured in 6I media, which includes all 6C/Colon 1B media plus 10 ng/mL human FGF-10 (PeproTech, cat. 100-26), 1 ng/mL human FGF-2 (PeproTech, cat. 100-18B), 1 µM prostaglandin E2 (Tocris Bioscience, cat. 2296), […] hydrocortisone (Sigma-Aldrich, cat. H4001), and […] bovine insulin (Sigma-Aldrich, cat. I6634). The K86415-001-R-J1-PDC line was cultured in 6D media, which includes all 6C/Colon 1B media components minus the L-WRN conditioned media. The 485176-168-R4-J1-PDC was cultured in PANC media, which includes all 6C/Colon 1B media plus 100 ng/mL human FGF-10 (PeproTech, cat. 100-26), 500 nM SB-431542 (Selleckchem, cat. S1067), and 10 nM gastrin (Tocris Bioscience, cat. 3006). […]

[1] = curve of first compound, second compound 0.0316 µM
[2] = curve of first compound, second compound 0.1 µM
[3] = curve of first compound, second compound 0.316 µM
[4] = curve of first compound, second compound 1 µM
[5] = curve of first compound, second compound 3.16 µM
[6] = curve of first compound, second compound 10 µM
[7] = second compound 0.0316 µM, first compound 0.0316 µM
[8] = second compound 0.0316 µM, first compound 0.1 µM
[9] = second compound 0.0316 µM, first compound 0.316 µM
[10] = second compound 0.0316 µM, first compound 1 µM
[11] = second compound 0.0316 µM, first compound 3.16 µM
[12] = second compound 0.0316 µM, first compound 10 µM
[13] = second compound 0.1 µM, first compound 0.0316 µM
[14] = second compound 0.1 µM, first compound 0.1 µM
[15] = second compound 0.1 µM, first compound 0.316 µM
[16] = second compound 0.1 µM, first compound 1 µM
[17] = second compound 0.1 µM, first compound 3.16 µM
[18] = second compound 0.1 µM, first compound 10 µM
[19] = second compound 0.316 µM, first compound 0.0316 µM
[20] = second compound 0.316 µM, first compound 0.1 µM
[21] = second compound 0.316 µM, first compound 0.316 µM
[22] = second compound 0.316 µM, first compound 1 µM
[23] = second compound 0.316 µM, first compound 3.16 µM
[24] = second compound 0.316 µM, first compound 10 µM
[25] = second compound 1 µM, first compound 0.0316 µM
[26] = second compound 1 µM, first compound 0.1 µM
[27] = second compound 1 µM, first compound 0.316 µM
[28] = second compound 1 µM, first compound 1 µM
[29] = second compound 1 µM, first compound 3.16 µM
[30] = second compound 1 µM, first compound 10 µM
[31] = second compound 3.16 µM, first compound 0.0316 µM
[32] = second compound 3.16 µM, first compound 0.1 µM
[33] = second compound 3.16 µM, first compound 0.316 µM
[34] = second compound 3.16 µM, first compound 1 µM
[35] = second compound 3.16 µM, first compound 3.16 µM
[36] = second compound 3.16 µM, first compound 10 µM
[37] = second compound 10 µM, first compound 0.0316 µM
[38] = second compound 10 µM, first compound 0.1 µM
[39] = second compound 10 µM, first compound 0.316 µM
[40] = second compound 10 µM, first compound 1 µM
[41] = second compound 10 µM, first compound 3.16 µM
[42] = second compound 10 µM, first compound 10 µM

Cc1nc(N2CCC3(CC2)COC(C)C3N)c(CO)nc1Sc1ccnc(N)c1Cl (stereo not given) + C#Cc1c(F)ccc2cc(O)cc(-c3ncc4c(N5CC6CCC(C5)N6)nc(OCC56CCCN5CC(F)C6)nc4c3F)c12
> 10 µM: IC50 [1] | IC50 [2] | IC50 [3] | IC50 [4] | IC50 [5] | IC50 [6]
inactive: viability, T/C [7] 101% | viability, T/C [8] 95.1% | viability, T/C [9] 98% | viability, T/C [10] 98.7% | viability, T/C [11] 98.4% | viability, T/C [12] 99.5% | viability, T/C [13] 97.3% | viability, T/C [14] 97.6% | viability, T/C [15] 95.3% | viability, T/C [16] 99% | viability, T/C [17] 99% | viability, T/C [18] 107% | viability, T/C [19] 96% | viability, T/C [20] 97.3% | viability, T/C [21] 99% | viability, T/C [22] 101% | viability, T/C [23] 101% | viability, T/C [24] 102% | viability, T/C [25] 93.4% | viability, T/C [26] 102% | viability, T/C [27] 102% | viability, T/C [28] 100% | viability, T/C [29] 103% | viability, T/C [30] 103% | viability, T/C [31] 103% | viability, T/C [32] 99.8% | viability, T/C [33] 99.5% | viability, T/C [34] 101% | viability, T/C [35] 102% | viability, T/C [36] 104% | viability, T/C [37] 99.9% | viability, T/C [38] 104% | viability, T/C [39] 106% | viability, T/C [40] 103% | viability, T/C [41] 103% | viability, T/C [42] 85.6%

C[C@@H](NC(=O)c1ncnc(N)c1Cl)c1ncc(C(=O)Nc2cc(C(F)(F)F)c(Cl)cn2)s1
inactive: viability, T/C (compound 0.0316 µM) 106% [middle of 4 runs] | viability, T/C (compound 0.1 µM) 103% (2×) and 98.6% and 92.7% | viability, T/C (compound 0.316 µM) 98.6% [middle of 4 runs] | viability, T/C (compound 1 µM) 95.3% [middle of 4 runs] | viability, T/C (compound 3.16 µM) 97.7% [middle of 4 runs] | viability, T/C (compound 10 µM) 108% [middle of 4 runs]
> 10 µM: IC50 (curve of compound)

CC(Nc1ccc2c(c1)OCCn1cc(N3C(=O)OCC3C(F)F)nc1-2)C(N)=O (stereo not given) + C#Cc1c(F)ccc2cc(O)cc(-c3ncc4c(N5CC6CCC(C5)N6)nc(OCC56CCCN5CC(F)C6)nc4c3F)c12
inactive: viability, T/C [7] 99.8% | viability, T/C [8] 102% | viability, T/C [9] 112% | viability, T/C [10] 110% | viability, T/C [11] 114% | viability, T/C [12] 66.2% | viability, T/C [13] 95% | viability, T/C [14] 102% | viability, T/C [15] 109% | viability, T/C [16] 114% | viability, T/C [17] 113% | viability, T/C [18] 73.7% | viability, T/C [19] 97.1% | viability, T/C [20] 102% | viability, T/C [21] 112% | viability, T/C [22] 115% | viability, T/C [23] 114% | viability, T/C [24] 70.3% | viability, T/C [25] 94.6% | viability, T/C [26] 101% | viability, T/C [27] 112% | viability, T/C [28] 115% | viability, T/C [29] 113% | viability, T/C [30] 62.6% | viability, T/C [31] 98.4% | viability, T/C [32] 102% | viability, T/C [33] 110% | viability, T/C [34] 114% | viability, T/C [35] 110% | viability, T/C [36] 47.7% | viability, T/C [37] 96.6% | viability, T/C [38] 100% | viability, T/C [39] 98.6% | viability, T/C [40] 94.4% | viability, T/C [41] 70.2% | viability, T/C [42] 17.4%
9.56 µM: IC50 [5]
> 10 µM: IC50 [1] | IC50 [2] | IC50 [3] | IC50 [4]
4.91 µM: IC50 [6]

CC(C)n1nc(-c2ccc3oc(N)nc3c2)c2c(N)ncnc21
inactive: viability, T/C (compound 0.000316 µM) 105% [middle of 4 runs] | viability, T/C (compound 0.001 µM) 104% (2×) and 99.9% and 103% | viability, T/C (compound 0.00316 µM) 110% [middle of 4 runs] | viability, T/C (compound 0.01 µM) 99% and 112% (2×) and 109% | viability, T/C (compound 0.0316 µM) 52.1% and 119% (2×) and 94.3%
9.59% [middle of 4 runs]: viability, T/C (compound 0.1 µM)
0.0331 µM and 0.0627 µM and 0.0555 µM: IC50 (curve of compound)

C#Cc1c(F)ccc2cc(O)cc(-c3ncc4c(N5CC6CCC(C5)N6)nc(OCC56CCCN5CC(F)C6)nc4c3F)c12 (stereo not given)
> 10 µM: IC50 (compound alone, run of 09/09/2024)
inactive: viability, T/C (compound 0.0316 µM) 102% [middle of 8 runs] | viability, T/C (compound 0.1 µM) 103% [middle of 8 runs] | viability, T/C (compound 0.316 µM) 101% [middle of 8 runs] | viability, T/C (compound 1 µM) 97% [middle of 8 runs] | viability, T/C (compound 3.16 µM) 97.6% [middle of 8 runs] | viability, T/C (compound 10 µM) 96.6% [middle of 8 runs]

— PubChem BioAssay AID2060884 (Molecular Pharmacology Branch, DTP, NCI, 2025)
